In patent publication US11510899B2, “RTX toxin production inhibitor and composition for treating symptom of vibrio infection by using same” (priority 2018, dated 2022):

The compounds below were run against T1, HlyU (Vibrio vulnificus, UniProt A0A3Q0L222) (assay: Vibrio reporter strain, pKK1305 (PrtxA-lux, activated by HlyU) in wild-type V. vulnificus). Conditions: Compound Group I; HlyU activity (RLU, DMSO = 100%), 30° C.
T1 sequence (A0A3Q0L222 1-98): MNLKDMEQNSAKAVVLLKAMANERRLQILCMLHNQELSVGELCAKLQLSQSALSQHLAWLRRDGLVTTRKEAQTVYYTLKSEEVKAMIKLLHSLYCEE
Assay type: cell-based
Procedure: Meanwhile, verification experiments using the Vibrio reporter strain were also conducted so as to exclude false positive results. It was identified that the effect of the compound was not limited only to E. coli using Vibrio vulnificus, each having the reporter plasmid (pZW1608) inhibited by HlyU, which was used for the E. coli reporter strain, and the plasmid (pKK1305) in which the promoter of the rtxA gene activated by HlyU is cloned in front of the bioluminescence operon.
The constructed wild-type Vibrio reporter strain was treated with sample compounds and cultured at 30° C., and cell growth and luminescence were measured in the same manner as the E. coli strain screening (FIG. 3 and FIG. 4).
In order to identify whether or not a specific structure of CM2660 has a significant effect on HlyU inhibition, the effect of HlyU inhibition by the compound CM2660 and derivatives thereof, “Compound Group I” (FIG. 5) was verified. For the purpose, the pKK1305 plasmid prepared in Example 1 was conjugated to the wild-type Vibrio vulnificus, and the Vibrio reporter strain (pKK1305 in wild-type V. vulnificus) thus produced was treated with various concentrations of the derivative compounds.
While culturing at 30° C., the growth of the reporter strain and the degree of bioluminescence thereof were measured in the same manner as in Example 1, and the RLU was calculated. The RLU of the DMSO-treated control group was expressed as 100% HlyU activity. HlyU activity was plotted according to the concentration of the derivative compound, and EC50 (half maximal effective concentration) was calculated using GraphPad Prism 7.0 (GraphPad Software, San Diego, Calif.) (FIG. 6, Table 2).

SMILES | EC50 [µM]
O=C(Nc1scc2c1c(=O)oc1ccccc12)c1ccccc1 [LJ4451] | 993
O=C(CCc1ccccc1)Nc1scc2c1c(=O)oc1ccccc12 [LJ4458] | 875

Same assay, conditions: Compound Group II; HlyU activity (RLU, DMSO = 100%), 30° C.; read-out: EC50

SMILES | EC50 [µM]
O=C(O)C#Cc1ccc([N+](=O)[O-])cc1 [LJ4526] | 140
CC(C)(C)OC(=O)CNC(=O)C#Cc1ccc(N)cc1 [LJ4531] | 118
CC(C)(C)OC(=O)CNC(=O)C#Cc1cccnc1 [LJ4532] | 52.4
O=C(O)CNC(=O)C#Cc1ccccc1 [LJ4533] | 1140
